From PMC11596630 (Molecules, 2024)
Read-outs that look alike come from different tables or passages of the source.

What was measured:
recombinant human AChE = biological target: T1, recombinant human AChE (Homo sapiens, UniProt P22303); assay: Inhibition of human AChE (Ellman method, Hunter–Downs Ki); format: biochemical; conditions: for Ki: human AChE, Ki ± SE, at least three experiments, ATCh substrate; for SI = Ki(BChE)/Ki(AChE): selectivity index, AChE over BChE
T1 construct: gift of Dr Florian Nachon, Armed Forces Biomedical Research Institute, Brétigny-sur-Orge, France
T1 sequence (P22303 32-614): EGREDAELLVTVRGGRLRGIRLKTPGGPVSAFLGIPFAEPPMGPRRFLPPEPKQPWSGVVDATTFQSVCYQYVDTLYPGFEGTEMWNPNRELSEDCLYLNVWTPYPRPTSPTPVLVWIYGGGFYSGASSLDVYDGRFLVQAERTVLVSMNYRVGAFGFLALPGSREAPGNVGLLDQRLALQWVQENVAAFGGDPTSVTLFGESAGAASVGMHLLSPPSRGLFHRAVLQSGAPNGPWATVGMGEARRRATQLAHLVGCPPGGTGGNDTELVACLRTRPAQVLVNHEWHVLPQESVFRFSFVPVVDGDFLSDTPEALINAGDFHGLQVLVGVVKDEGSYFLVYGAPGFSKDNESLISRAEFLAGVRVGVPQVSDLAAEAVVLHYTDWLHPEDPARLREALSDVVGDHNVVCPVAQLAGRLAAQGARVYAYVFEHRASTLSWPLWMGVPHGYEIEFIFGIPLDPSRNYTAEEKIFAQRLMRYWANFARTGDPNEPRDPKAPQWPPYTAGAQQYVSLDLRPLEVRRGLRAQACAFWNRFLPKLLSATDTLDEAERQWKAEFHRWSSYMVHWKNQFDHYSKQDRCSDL
Protocol: (§1) Acetylthiocholine (ATCh) and 5,5’-dithiobis(2-nitrobenzoic acid) (DTNB) were purchased from Sigma Chemical Co., St. Louis, MO, USA. ATCh was dissolved in water and DTNB in 0.1 M sodium phosphate buffer (pH 7.4). […] Purified human BChE and recombinant human AChE were kindly provided by Dr Florian Nachon (Département de Toxicologie, Armed Forces Biomedical Research Institute, Brétigny-sur-Orge, France). The enzymes were diluted in a phosphate sodium buffer 0.1 M (pH 7.4) containing 0.01% BSA.
(§2) Cholinesterase activity measurements, evaluation of Ki (dissociation constants of enzyme−inhibitor complex) and Ks constants (dissociation constants of enzyme−substrate complex) were performed following procedures described previously. Briefly, enzyme activity was measured spectrophotometrically using a slightly modified Ellman method. […] At least three concentrations of inhibitors for each substrate concentration were used in at least three experiments.
(§3) The y-intercept determines the enzyme–inhibitor dissociation constants (Ki), while the x-intercept determines the enzyme–substrate dissociation constant, KS [57].

purified human BChE = biological target: T2, purified human BChE (Homo sapiens, UniProt P06276); assay: biochemical; format: biochemical; conditions: human BChE, Ki ± SE, at least three experiments, ATCh substrate
T2 construct: gift of Dr Florian Nachon, Armed Forces Biomedical Research Institute, Brétigny-sur-Orge, France
T2 sequence (P06276 29-602): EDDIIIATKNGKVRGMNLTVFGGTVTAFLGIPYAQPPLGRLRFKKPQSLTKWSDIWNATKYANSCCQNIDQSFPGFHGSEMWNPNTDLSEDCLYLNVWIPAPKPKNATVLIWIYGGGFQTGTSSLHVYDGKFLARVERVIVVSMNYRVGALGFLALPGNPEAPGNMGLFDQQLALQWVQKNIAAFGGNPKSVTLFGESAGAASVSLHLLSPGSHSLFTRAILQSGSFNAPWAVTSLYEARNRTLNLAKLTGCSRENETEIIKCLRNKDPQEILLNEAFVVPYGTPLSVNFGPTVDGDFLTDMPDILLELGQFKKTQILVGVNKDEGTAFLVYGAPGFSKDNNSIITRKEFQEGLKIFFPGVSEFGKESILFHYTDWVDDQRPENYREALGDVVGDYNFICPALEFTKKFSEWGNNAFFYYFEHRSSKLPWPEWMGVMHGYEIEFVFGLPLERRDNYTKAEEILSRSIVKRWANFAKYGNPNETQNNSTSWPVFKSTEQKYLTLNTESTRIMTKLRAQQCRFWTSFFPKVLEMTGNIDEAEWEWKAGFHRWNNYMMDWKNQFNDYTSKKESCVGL
Protocol: as §1, §2, §3

[1] = Cytotoxicity MTS assay, HEK293; format: cell-based; conditions: 24 h exposure
Protocol: (§4) The human hepatocyte carcinoma HepG2 (ECACC 85011430), human embryo kidney HEK293 (ECACC 85120602) and human neuroblastoma SH-SY5Y (ECACC 94030304) cell lines were obtained from the certified cell-bank European Collection of Authenticated Cell Cultures (ECACC) through Sigma-Aldrich (Steinheim, Germany). HepG2 and HEK293 cells were grown in EMEM and SH-SY5Y in DMEM-F12, as described previously, and cell cultivation and maintenance were conducted according to standard protocol. All media and supplements were purchased from Sigma-Aldrich, Steinheim, Germany.
(§5) The cytotoxic profiles of tested compounds were determined by measuring the succinate dehydrogenase mitochondrial activity of exposed cells. The commercially available MTS detection reagent assay (CellTiter 96® AQueous One Solution Cell Proliferation Assay, Promega, Madison, WI, USA) was used. The procedure followed a previously described protocol. Cells were exposed to compounds in a concentration range of 0.01–1000 µM for 24 h. DMSO (20%) was used as positive control to validate the method. After desired time of incubation at 37 °C in a 5% CO2 atmosphere, cells were washed with PBS buffer and 100 µL of EMEM or DMEM medium and 20 µL of MTS were added in each well, incubated up to 1 h after which the absorbance was read at 492 nm on an Infinite M200PRO plate reader (Tecan Austria GmbH, Salzburg, Austria). Data are presented as percentages of the inhibited cells to control untreated cells, i.e., the percentage of cytotoxicity.

[2] = Cytotoxicity MTS assay, HepG2; format: cell-based; conditions: 24 h exposure
Protocol: as §4, §5

[3] = Cytotoxicity MTS assay, SH-SY5Y; format: cell-based; conditions: 24 h exposure
Protocol: HepG2 and HEK293 cells were grown in EMEM and SH-SY5Y in DMEM-F12, as described previously, and cell cultivation and maintenance were conducted according to standard protocol. All media and supplements were purchased from Sigma-Aldrich, Steinheim, Germany.
as §5

[4] = FRAP assay (ferric reducing antioxidant power); conditions: 10 µM compound
Protocol: The in vitro antioxidant activity of tested compounds was evaluated using the FRAP assay following a procedure described earlier. […] Trolox and butylated hydroxytoluene (BHT) were used as standard antioxidants. The absorbance was recorded at 593 nm using a microplate reader (SpectraMax iD3, Molecular Devices, San Jose, CA, USA) against a blank. All measurements were taken in three independent triplicates in at least three independent experiments. FRAP values, denominating the reduction of ferric-tripyridyltriazine (Fe^3+-TPTZ) to ferrous tripyridyltriazine (Fe^2+-TPTZ) by the tested compounds, were calculated on the basis of a standard curve obtained using […].

[5] = tested on: HepG2, HEK293 and SH-SY5Y; assay: Cytotoxicity MTS assay, over all three cell lines; format: cell-based, human; conditions: 24 h exposure
Protocol: as §4, §5

[6] = Cytotoxicity MTS assay, over all three cell lines; format: cell-based, human; conditions: human, HEK293 and SH-SY5Y cells; HepG2, HEK293, SH-SY5Y; 24 h exposure
Protocol: as §4, §5

[7] = human, SH-SY5Y cells, IC50 ± SE

SMILES | Ki (recombinant human AChE) [µM] | Ki (purified human BChE; Ki BChE) [µM] | IC50 at 24 h ([1]; in mM) [mM] | IC50 at 24 h ([2]; in mM) [mM] | IC50 at 24 h ([3]; IC50 ± SE) [mM] | SI = Ki(BChE)/Ki(AChE) (recombinant human AChE) | Ki (purified human BChE; read-out: Ki BChE) [µM] | FRAP value / reducing power compared with Trolox and BHT [4] | IC50 at 24 h ([1]; human, HEK293 cells, IC50 ± SE) [mM] | IC50 at 24 h ([2]; human, HepG2 cells, IC50 ± SE) [mM] | IC50 at 24 h [3, 7] [mM] | IC50 at 24 h ([1]; human, HEK293 cells, in mM) [mM] | IC50 at 24 h ([2]; human, HepG2 cells, in mM) [mM] | IC50 at 24 h ([3]; human, SH-SY5Y cells, in mM) [mM] | Toxicity to any tested cell type [5] | IC50 at 24 h [6] [µM] | FRAP value relative to the FRAP value for BHT [4]
CCN(CC)Cc1cc(Nc2ccnc3cc(Cl)ccc23)ccc1O [AMQ, Amodiaquine, reference compound] | 0.046 ± 0.001 | 9.1 ± 0.7 | ≥ 1 | ≥ 1 | 0.134 ± 0.036 |  |  |  |  |  |  |  |  |  |  |  | 
CCN(CC)Cc1cc(Nc2ccnc3cc(F)ccc23)ccc1O [Compound 1] | 0.17 ± 0.01 |  |  |  |  | 77 | 13 ± 1 | not more than 50% lower than those of either Trolox or BHT | 0.09 ± 0.022 | 0.219 ± 0.028 | 0.09 ± 0.01 |  |  |  |  |  | 
CCN(CC)Cc1cc(Nc2ccnc3cc(C(F)(F)F)ccc23)ccc1O [Compound 2] | 0.075 ± 0.003 |  |  |  |  | 97 | 7.3 ± 0.8 |  |  |  |  | ≥ 1 | ≥ 1 | ≥ 1 | not toxic to any tested cell type |  | 
CCN(CC)Cc1cc(Nc2ccnc3cc(C#N)ccc23)ccc1O [Compound 3] | 0.078 ± 0.004 |  |  |  |  |  | 19 ± 1 | not more than 50% lower than those of either Trolox or BHT | 0.103 ± 0.003 | 0.471 ± 0.019 | 0.098 ± 0.003 |  |  |  |  | ≥ 100 | 
CCN(CC)Cc1cc(Nc2ccnc3cc([N+](=O)[O-])ccc23)ccc1O [Compound 4] | 0.084 ± 0.003 |  |  |  |  |  | 14 ± 1 |  | 0.033 ± 0.003 | 0.039 ± 0.006 | 0.026 ± 0.004 |  |  |  |  |  | 
CCN(CC)Cc1cc(Nc2ccnc3cc(OC)ccc23)ccc1O [Compound 5] | 0.025 ± 0.001 |  |  |  |  | 300 | 7.6 ± 0.4 | not more than 50% lower than those of either Trolox or BHT | 0.037 ± 0.011 | 0.1 ± 0.01 | 0.036 ± 0.005 |  |  |  |  |  | higher than 50%
CCN(CC)Cc1cc(Nc2ccnc3ccccc23)ccc1O [Compound 6] | 0.23 ± 0.01 |  |  |  |  | 26 | 5.9 ± 0.8 |  | 0.35 ± 0.04 |  | 0.453 ± 0.012 |  | ≥ 1 |  |  | ≥ 100 | higher than 50%
